Results taken from patent US9855205B2, “Use of zinc coceth sulfate as an antibacterial agent against propionibacterium acnes” (PIERRE FABRE DERMO-COSMETIQUE, priority 2012, dated 2018).

How the values were obtained:
[1] = test system: chorio-allantoic membrane of an embryonated chicken egg; assay: Het Cam test (tolerance on the mucosa); conditions: 1% solution, irritant effects within five minutes, tenth day of incubation
Method: Zinc coceth was tested in a 1% solution.

[2] = Irritant and sensitising potential
[3] = pH of zinc coceth sulfate; format: physicochemical
[4] = test system: Propionibacterium acnes ATCC6919; assay: Evaluation of the bactericidal activity against P. acnes (log reduction over contact time); format: cell-based; conditions: Zetesol Zn at 20% (5% active zinc coceth sulfate)
Method: The reduction over time of the log 10 of the number of germs in relation to initial number of germs (log R parameter) is evaluated.
The strain tested is Propionibacterium acnes ATCC6919.
Zetesol Zn® was tested at the concentration of 20% (i.e. 5% of active ingredient zinc coceth sulfate).
Method • placing into contact of the product to be tested with suspensions of P. acnes titrated at about 10^6 CFU/ml for 1, 5, 10 and 15 minutes. • Viable count after each duration of contact by inclusion of 1 ml of the sample in a culture agar (Columbia) • Incubation 72 hours at 36° C. in anaerobic conditions • Viable count of residual bacteria via direct counting.
Calculation of the fall in log 10:
The calculation of the fall in log 10 of the number of CFU/ml is carried out according to the formula hereinbelow: Logarithmic reduction=LOG 10(number of CFU present at TO/number of CFU remaining at Tx)
The results indicated in table 1 are the average of two independent tests (except for the duration of 10 min where only 1 test was carried out). Also see FIG. 1. […]

**Q.** With Zinc coceth sulfate [Zetesol ® Zn] as the substance, how does the “tolerance on the mucosa” value [1] read?
**A.** The value was “good tolerance on the mucosa”.

**Q.** And the “irritant and sensitising potential” value [2]?
**A.** Its value is “devoid of any irritant and sensitising potential”.

**Q.** What about the pH [3] of the same substance?
**A.** Its pH is 4.5.

**Q.** What about the “Log Reduction in 1 minute” value ([4]; contact 1 min, average of two tests) of the same substance?
**A.** Its value is 0.63 log.

**Q.** What about the “Log Reduction in 5 minutes” value ([4]; contact 5 min, average of two tests) of the same substance?
**A.** The value was 2.06 log.

**Q.** And the “Log Reduction in 10 minutes” value ([4]; contact 10 min, only 1 test)?
**A.** Its value is 3.65 log.

**Q.** And the “Log Reduction in 15 minutes” value ([4]; contact 15 min, average of two tests)?
**A.** Its value is greater than 5.04 log.
